Patent US20250346573A1, “AZAQUINOLINONE DERIVATIVE, PREPARATION METHOD THEREFOR AND USE THEREOF” (CHENGDU EASTON BIOPHARMACEUTICALS CO., LTD., priority 2022, published 2025)

Columns and labels:
[1] = test system: BRCA1-mutated HCC1395 cells; experiment: Proliferation inhibitory test of BRCA1-mutated HCC1395 cells (CCK-8); type: cell-based; conditions: Homo sapiens, 120 h, 5 days, read-out: IC50 (nM), inhibitory activity against BRCA1-mutated HCC1395 cells
Experimental: (§1) CCK-8 was used to measure the content of mitochondrial dehydrogenase in cells at different drug concentrations, and the luminescence intensity was used to reflect the cell activity. The IC50 values of different compounds on BRCA1-mutated HCC1395 cells were calculated using the survival rate, and the proliferation inhibitory effect of the compounds of the present disclosure on BRCA1-mutated HCC1395 cells was studied to evaluate the anti-tumor efficacy of the test compounds at the cellular level.
(§2) On Day −1, the cells were inoculated into the 96-well cell culture plate at a fixed cell density and then placed in the 5% CO2 cell incubator for culture overnight at 37° C.
(§3) On Day 0, the compound to be tested was prepared into a 10 mM stock solution and diluted into 9 concentration points at the concentration of 1,000 nM, 300 nM, 100 nM, 30 nM, 10 nM, 3 nM, 1 nM, 0.3 nM and 0.1 nM in two duplicated wells. A fixed volume of the diluted compound was added to the 96-well cell culture plate and then placed in the 5% CO2 cell incubator for culture at 37° C. for 5 days.
(§4) On Day 5, a fixed volume of CCK-8 was added to the 96-well cell culture plate and incubated in the 5% CO2 cell incubator at 37° C. for 1.5 h, and the plate was read by a chemiluminescence module of the multifunctional microplate reader.
(§5) With the logarithmic value of the concentration as an X axis and the survival percentage as a Y axis, a dose-effect curve was fitted by using a log(inhibitor) vs. response-Variable slop (Four parameters) formula of the analysis software Graphpad Prism 9, thereby obtaining the IC50 value of the anti-proliferation inhibitory activity of each compound against BRCA1-mutated HCC1395 cells.

[2] = test system: BRCA1-mutated MDA-MB-436 cells; experiment: Proliferation inhibitory test of BRCA1-mutated MDA-MB-436 cells (CCK-8); type: cell-based; conditions: Homo sapiens, 120 h, 5 days, read-out: IC50 (nM), inhibitory activity against BRCA1-mutated MDA-MB-436 cells
Experimental: as §1, with “MDA-MB-436” for “HCC1395”
as §2, §3, §4
as §5, with “MDA-MB-436” for “HCC1395”

[3] = Study on pharmacokinetics of rats (oral gavage, plasma LC-MS/MS); type: in vivo; conditions: female SD rats; for AUC(0-t) / Cmax / half-life: rat
Experimental: With SD rats as test animals, the plasma concentration in the plasma of rats at different time points after oral administration of the compounds of the present application was determined by an LC-MS/MS method. Pharmacokinetic parameters of the compounds of the present application in rats were obtained to study pharmacokinetic characteristics.
SD rats, female, body weight 180-220 g, 3 rats per group. After being purchased, the animals were fed in an animal house for an adaptation period of at least 3 days and then used for testing after passing quarantine.
3.1. Grouping: The SD rats were randomly grouped according to Table 4, which had no statistical difference in the body weight between groups after grouping.
3.2. Vehicle: 10% DMSO and 90% (20% SBE-β-CD in saline).
According to Table 4, each compound was prepared into a clear solution with the vehicle, respectively, and each group was administered by gavage with the corresponding test drug. Before administration, and at 15 min, 30 min, 1 h, 2 h, 4 h, 6 h, 8 h and 24 h after the administration, a fixed volume of blood was collected through sinuses jugularis, placed in an EDTA-K2 anticoagulant tube, and centrifuged at 4,000 rpm for 10 min to separate the plasma in a centrifuge tube. The plasma was frozen in a refrigerator at −80° C.
The plasma stored at −80° C. at each time point was taken out, and a fixed volume of acetonitrile was added thereto. After being vortexed at 1,500 rpm for 2 min, it was centrifuged for 15 min (3,500 r/min). A fixed volume of solution supernatant was taken for LC-MS/MS analysis.
The pharmacokinetic behaviors of the test compounds were fitted with a non-compartmental model, and the main pharmacokinetic parameters were calculated using DAS3.31 software.

SMILES | IC50 [1] | IC50 [2] | Cl_F_obs ([3]; po. 3 mg/kg) | AUC(0-t) ([3]; po. 3 mg/kg) | Cmax ([3]; po. 3 mg/kg) | half-life ([3]; po. 3 mg/kg) | Cl_F_obs ([3]; po. 10 mg/kg) | AUC(0-t) ([3]; po. 10 mg/kg) | Cmax ([3]; po. 10 mg/kg) | half-life ([3]; po. 10 mg/kg)
CNC(=O)c1ccc(N2CCN(Cc3cc4[nH]c(=O)c(C)nc4cc3OC)CC2)c(Cl)n1 [Compound 37, 6-chloro-5-(4-((7-methoxy-2-methyl-3-oxo-3,4-dihydroquinoxalin-6-yl)methyl)piperazin-1-yl)-N-methylpicolinamide] | 0.95 nM | 4.88 nM |  |  |  |  |  |  |  | 
CCc1nc2c(F)cc(CN3CCN(c4ccc(C(=O)NC)nc4C)CC3)cc2[nH]c1=O [Compound 32, 5-(4-((2-ethyl-8-fluoro-3-oxo-3,4-dihydroquinoxalin-6-yl)methyl)piperazin-1-yl)-N,6-dimethylpicolinamide] | 1.82 nM | 5.24 nM | 0.83 mL/min/kg | 50600 ng·h/mL | 7180 ng/mL | 7.39 h |  |  |  | 
CNC(=O)c1ccc(N2CCN(Cc3cc(Cl)c4nc(C)c(=O)[nH]c4c3)CC2)c(C)n1 [Compound 51, 5-(4-((8-chloro-2-methyl-3-oxo-3,4-dihydroquinoxalin-6-yl)methyl)piperazin-1-yl)-N,6-dimethylpicolinamide] | 1.31 nM | 1.05 nM |  |  |  |  |  |  |  | 
Cc1nc(C(=O)NC2CC2)ccc1N1CCN(Cc2cc(F)c3nc(C)c(=O)[nH]c3c2)CC1 [Compound 55, N-cyclopropyl-5-(4-((8-fluoro-2-methyl-3-oxo-3,4-dihydroquinoxalin-6-yl)methyl)piperazin-1-yl)-6-methylpicolinamide] | 2.56 nM | 2.2 nM | 2.33 mL/min/kg | 21300 ng·h/mL | 2210 ng/mL | 6.26 h |  |  |  | 
CNC(=O)c1ccc(N2CCN(Cc3ccc4nc(C)c(=O)[nH]c4c3F)CC2)c(F)n1 [AZD9574, reference compound] | 9.93 nM | 21.8 nM | 6.17 mL/min/kg | 6460 ng·h/mL | 702 ng/mL | 6.06 h |  |  |  | 
Cc1nc(C(=O)NCC(F)F)ccc1N1CCN(Cc2cc(F)c3nc(C)c(=O)[nH]c3c2)CC1 [Compound 28, N-(2,2-difluoroethyl)-5-(4-((8-fluoro-2-methyl-3-oxo-3,4-dihydroquinoxalin-6-yl)methyl)piperazin-1-yl)-6-methylpicolinamide] | 2.03 nM | 4.53 nM |  |  |  |  |  |  |  | 
CNC(=O)c1ccc(N2CCN(Cc3cc4[nH]c(=O)c(C)nc4c(F)c3F)CC2)c(C)n1 [Compound 9, 5-(4-((7,8-difluoro-2-methyl-3-oxo-3,4-dihydroquinoxalin-6-yl)methyl)piperazin-1-yl)-N,6-dimethylpicolinamide] | 2.29 nM | 5.84 nM |  |  |  |  | 0.5 mL/min/kg | 340000 ng·h/mL | 31900 ng/mL | 7.74 h
CNC(=O)c1ccc(N2CCN(Cc3cc(F)c4nc(C)c(=O)[nH]c4c3)CC2)c(C)n1 [Compound 6, 5-(4-((8-fluoro-2-methyl-3-oxo-3,4-dihydroquinoxalin-6-yl)methyl)piperazin-1-yl)-N,6-dimethylpicolinamide] | 2.45 nM | 2.06 nM |  |  |  |  | 2.17 mL/min/kg | 72600 ng·h/mL | 11300 ng/mL | 6.07 h
CCc1cc2ncc(CN3CCN(c4ccc(C(=O)NC)nc4)CC3)cc2[nH]c1=O [AZD5305, reference compound] | 1.76 nM | 0.67 nM |  |  |  |  |  |  |  | 
CCc1nc2c(F)cc(CN3CCN(c4ccc(C(=O)NCCOC)nc4C)CC3)cc2[nH]c1=O [Compound 34, 5-(4-((2-ethyl-8-fluoro-3-oxo-3,4-dihydroquinoxalin-6-yl)methyl)piperazin-1-yl)-N-(2-methoxyethyl)-6-methylpicolinamide] |  | 5.87 nM | 3 mL/min/kg | 17000 ng·h/mL | 3230 ng/mL | 5.2 h |  |  |  | 
